Test results published in ChEMBL document CHEMBL1138244, “Three-dimensional quantitative structure-activity relationships and activity predictions of human TRPV1 channel antagonists: comparative molecular field analysis and comparative molecular similarity index analysis of cinnamides” (J Med Chem, 2007).

Assay: Inhibition of rat human chimera TRPV1 channel expressed in CHO cells
Assay type: cell-based

| Structure (SMILES) | IC50 [nM] | pIC50 |
| --- | --- | --- |
| Cc1cccc(/C(=C/C(=O)Nc2ccc3c(c2)OCCO3)c2ccc(C(C)(C)C)cc2)c1 | 59 | 7.23 |
| CC(C)(C)c1ccc(/C(=C\C(=O)Nc2ccc3c(c2)OCCO3)c2ccc(Cl)cc2)cc1 | 42 | 7.37 |
| CC(C)(C)c1ccc(/C(=C\C(=O)Nc2ccc3c(c2)OCCO3)c2ccc(F)cc2)cc1 | 39 | 7.41 |
| O=C(/C=C/c1cccc(C(F)(F)F)c1)Nc1ccc2c(c1)OCCO2 | 1210 | 5.92 |
| O=C(/C=C/c1cccc2ccccc12)Nc1ccc2c(c1)OCCO2 | 643 | 6.19 |
| O=C(/C=C/c1ccc(F)cc1F)Nc1ccc2c(c1)OCCO2 | 3600 | 5.44 |
| CC(=O)Nc1ccc(/C=C/C(=O)Nc2ccc3c(c2)OCCO3)cc1 | > 40000 | 4.4 |
| CC(=O)Oc1ccc(/C=C/C(=O)Nc2ccc3c(c2)OCCO3)cc1 | 2330 | 5.63 |
| Cc1ccc(C(=CC(=O)Nc2ccc3c(c2)OCCO3)c2ccc(C)cc2)cc1 | 247 | 6.61 |
| O=C(/C=C/c1ccc(C2CC2)cc1)Nc1ccc2c(c1)OCCO2 | 419 | 6.38 |
| Cc1ccc(/C=C/C(=O)Nc2ccc3c(c2)OCCO3)cc1C | 455 | 6.34 |
| C=Cc1ccc(/C=C/C(=O)Nc2ccc3c(c2)OCCO3)cc1 | 3520 | 5.45 |
| O=C(C=C(c1ccc(Br)cc1)c1ccc(Br)cc1)Nc1ccc2c(c1)OCCO2 | 61 | 7.22 |
| Cc1ccc(/C(=C/C(=O)Nc2ccc3c(c2)OCCO3)c2ccc(C(C)(C)C)cc2)cc1 | 93 | 7.03 |
| CCC(C)(C)c1ccc(/C=C/C(=O)Nc2ccc3c(c2)OCCO3)cc1 | 48 | 7.32 |
| O=C(/C=C/c1ccc2ccccc2c1)Nc1ccc2c(c1)OCCO2 | 740 | 6.13 |
| O=C(/C=C/c1ccc(I)cc1)Nc1ccc2c(c1)OCCO2 | 509 | 6.29 |
| O=C(/C=C/c1ccc(C(F)(F)F)c(F)c1)Nc1ccc2c(c1)OCCO2 | 129 | 6.89 |
| O=C(/C=C/c1cccc(OC(F)(F)F)c1)Nc1ccc2c(c1)OCCO2 | 1620 | 6.79 |
| CC(C)(C)c1ccc(/C=C/C(=O)Nc2ccc3c(c2)OCCO3)cc1 (stereo in doubt; 1) | 23 | 7.59 |
| CC(C)(C)c1ccc(/C=C/C(=O)Nc2ccc3c(c2)OCCO3)cc1 (stereo in doubt; 91) | 136 | 6.87 |
